The source made the active and inactive calls. The calls are words filed in the database; no cut-off is given here.
What was measured:
Type in all cases: nucleic-acid assay
[1] = system: Nucleic Acid; experiment: Binding affinity to thiol-bearing RNA1 aptamer assessed as RNA1-compound conjugate formation at 1 uM after 1 hr by MALDI-MS analysis in presence of non-complementary DNA
[2] = system: Nucleic Acid; experiment: Covalent binding affinity to thiol-bearing RNA1 aptamer assessed as rate constant at 1 uM by MALDI-MS analysis
[3] = system: Nucleic Acid; experiment: Binding affinity to thiol-bearing RNA2 aptamer assessed as RNA2-compound conjugate formation at 1 uM by MALDI-MS 123 analysis
[4] = system: Nucleic Acid; experiment: Binding affinity to RNA1-DNA hybrid assessed as inhibition of RNA1/DNA hybrid-compound conjugate formation at 1 uM after 1 hr by MALDI-MS analysis
[5] = system: Nucleic Acid; experiment: Binding affinity to thiol-bearing RNA1 aptamer assessed as RNA1-compound conjugate formation at 1 uM by MALDI-MS 123 analysis
[6] = system: Nucleic Acid; experiment: Binding affinity to thiol-bearing RNA1 aptamer assessed as RNA1-compound conjugate formation at 1 uM after 1 hr by MALDI-MS analysis in presence of non-complementary DNA and 1 uM iodoacetamide
[7] = system: Nucleic Acid; experiment: Binding affinity to thiol-bearing RNA1 aptamer assessed as RNA1-compound conjugate formation at 1 uM after 1 hr by MALDI-MS analysis in presence of complementary DNA
[8] = system: Nucleic Acid; experiment: Binding affinity to thiol-bearing RNA2 aptamer assessed as RNA2-compound conjugate formation at 1 uM after 1 hr by MALDI-MS analysis in presence of complementary DNA

| Activity [1] | K [2] [×10⁻² /min] | Activity [3] | Activity [4] | Activity [5] | Activity [6] [%] | Activity [7] | Activity [8] | SMILES |
| --- | --- | --- | --- | --- | --- | --- | --- | --- |
| inactive | 5.5 | Active | inactive | 90% | 90 |  |  | N=C(N)NCCC[C@H](NC(=O)c1cccc2c(Nc3ccc(CNC(=O)CBr)cc3)cc(-c3ccccc3)nc12)C(N)=O |
|  |  | Active |  | Active |  | inactive | inactive | CC(C)[C@H](NC(=O)[C@H](CO)NC(=O)CBr)C(=O)NCc1ccc(Nc2cc(-c3ccccc3)nc3c(C(=O)N[C@@H](CCCNC(=N)N)C(N)=O)cccc23)cc1 |
|  |  | Active |  | Active |  | inactive | inactive | CC(C)[C@H](NC(=O)CBr)C(=O)NCc1ccc(Nc2cc(-c3ccccc3)nc3c(C(=O)N[C@@H](CCCNC(=N)N)C(N)=O)cccc23)cc1 |

Reference: ChEMBL document CHEMBL1821595, “Covalent stabilization of a small molecule-RNA complex” (Bioorg Med Chem Lett, 2011)
